In PubChem BioAssay (NCI) one finds TGI and GI50 data, which are given here for 17 molecules.

Experiment in all cases: DTP human tumour cell line panel, 48 h
Experiment [1] has as its system SK-MEL-2 melanoma.
For experiment [2], the system named is UACC-257 melanoma.
The test system of experiment [3] is HT29 colon.
In experiment [4] the test system is SK-MEL-5 melanoma.
For experiment [5], the system named is HOP-92 NSCLC.
Experiment [6] deals with M14 melanoma.
Experiment [7] concerns HCT-15 colon.
For experiment [8], the system named is SF-268 CNS.
Experiment [9] deals with ACHN renal.
Experiment [10] relates to SNB-75 CNS.

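Five compound concentrations were applied to cells in 96-well plates for 48 hours; endpoints were derived by simple linear interpolation of the resulting dose-response curve. Here, GI50 denotes the concentration required for 50% inhibition of growth. TGI denotes the concentration required for complete inhibition of growth.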 Where a SMILES comes first, the peptide text is derived from it. [ ]: non-standard residue; d: D form. 2Nal = N[CH](Cc1ccc2ccccc2c1)C(=O)O

As a reminder, the TGI is the concentration at which net growth stops. A lower TGI goes with more potent growth arrest. Consider `COc1ccc(C[C@H](N)C(=O)N2C[C@@H](CO)C[C@@H](n3cnc4c(N(C)C)ncnc43)C2)cc1`, for which the TGI in experiment [1], in [2], in experiment [3], in experiment [4], in experiment [5] and in experiment [6] was more than 100 µM each time. The TGI in experiment [7] and in experiment [8] was more than 100 µM in each case.

Turning to `CCOC(=O)c1c2cccccc2n2c(=O)cc(C)nc12`, the TGI in experiment [9], in experiment [1], in experiment [2], in experiment [3], in [6] and in experiment [7] was more than 100 µM each time. The TGI in experiment [8] was more than 100 µM.

As to `COc1ccc(-c2nc(-c3cnccn3)n(COCCO)n2)cc1`, the concentration for total growth inhibition (TGI) in experiment [2], in experiment [3], in [4], in experiment [5], in [6] and in experiment [7] was more than 100 µM in each case. The molecule also showed a concentration for total growth inhibition (TGI) in [8] of more than 100 µM.

`N#Cc1cc(NC(=O)c2ccccc2)c(=O)n2c1[nH]c1ccccc12`: the TGI in experiment [9] was more than 100 µM; in experiment [1] it was 89.8 µM; in [2], more than 100 µM; in experiment [3] it was more than 100 µM; in [4], 34.2 µM; in [6], 76.9 µM. Further, the TGI is 68.3 µM in experiment [10], more than 100 µM in experiment [7] and more than 100 µM in experiment [8].

`Nc1ccc2c(c1)Oc1c(F)c(F)cc3c(=O)c(C(=O)O)cn-2c13`: the concentration for total growth inhibition (TGI) in experiment [1] was more than 100 µM; in [3], more than 100 µM; in [4], 47.9 µM; in [5], 96.9 µM; in [6], more than 100 µM; in experiment [7], more than 100 µM.

What is called GI50 is the concentration giving 50% growth inhibition. Regarding `COC(=O)C1=C(O)[C@H](C(=O)OC)[C@]2(O)[C@@H](C(=O)OC)[C@H]1C[C@@H](c1ccc(OC(=O)/C=C/c3ccco3)cc1)[C@@H]2C(=O)OC`, the GI50 was 14.4 µM in experiment [9]; 65.5 µM in [2]; 11.5 µM in experiment [3]; 27.1 µM in [4]; 18.1 µM in [5]; 10.7 µM in experiment [6]. In addition, the GI50 in [7] is 6.22 µM; in [8], 40.8 µM. Besides, the TGI in experiment [9] is 28.7 µM; in [2], more than 100 µM; in experiment [3], more than 100 µM; in experiment [4] it was 94.4 µM; in [5], 48.3 µM; in [6] it was 23.2 µM. The TGI was 24 µM in experiment [7] and more than 100 µM in experiment [8].

Turning to `O=C1[C@H](Cl)[C@H]2c3cc4ccccc4nc3Oc3ccccc3N12`, the TGI in [9], in experiment [1], in experiment [2], in [3], in experiment [4] and in experiment [6] was more than 100 µM each time. For the same molecule, the TGI in experiment [10] was 17.7 µM; in experiment [7], more than 100 µM; in experiment [8] it was more than 100 µM.

Take `CC(C)C(NC(=O)C(CCCCN)NC(=O)C(Cc1c[nH]c2ccccc12)NC(=O)C(Cc1ccc(O)cc1)NC(=O)C(CS)NC(=O)C(N)Cc1ccc2ccccc2c1)C(=O)NC(CS)C(=O)NC(C(N)=O)C(C)O` (stereo not given) (H-[2Nal]CYWKVCT-NH2; configuration not given here): the GI50 in experiment [9], in experiment [1], in [2], in [3], in [6] and in experiment [7] was more than 100 µM in each case. The TGI in experiment [9] is more than 100 µM; in experiment [1] it was more than 100 µM; in experiment [2], more than 100 µM; in experiment [3] it was more than 100 µM; in [4], more than 12.5 µM; in experiment [6], more than 100 µM. In addition, the TGI in [10] is more than 100 µM; in experiment [7], more than 100 µM; in [8], more than 12.5 µM.

For the molecule `CO[C@@H]1[C@H]2[C@@H](C)c3ccoc3C[C@@H]2[C@@]2(C)CC[C@H](OC(=O)c3ccccc3)[C@](C)(C(=O)O)[C@]2(O)[C@@H]1OC(=O)c1ccccc1`, the GI50 in [9] is 7.98 µM; in [1] it was 24.1 µM; in experiment [2] it was 15.9 µM; in experiment [3], 13.5 µM; in experiment [4], 7.21 µM; in experiment [6], 8.53 µM. Besides, the GI50 in experiment [10] is more than 50 µM; in experiment [7] it was 7.93 µM; in [8], 21.2 µM. In addition, the TGI in experiment [9] is 18.9 µM; in experiment [1], more than 50 µM; in experiment [2], 40.7 µM; in experiment [3], more than 50 µM; in experiment [4], 13.7 µM; in experiment [6] it was 24.4 µM. In addition, the TGI in [10] was more than 50 µM; in experiment [7], 16.3 µM; in experiment [8], more than 50 µM.

In the case of `O=C(Nc1cccnc1)c1ccc2ccc3ccc(C(=O)Nc4cccnc4)nc3c2n1`, the GI50 in [9] is 0.145 µM; in experiment [1] it was 0.911 µM; in experiment [3], 0.0458 µM; in experiment [4], 0.271 µM; in experiment [6] it was 0.0799 µM; in experiment [10] it was 0.273 µM. In addition, the GI50 in experiment [7] is 0.0518 µM; in experiment [8], 0.225 µM. In addition, the TGI in experiment [9], in experiment [1], in experiment [3], in experiment [4], in [6] and in experiment [10] was more than 100 µM each time. In addition, the TGI in experiment [7] and in experiment [8] was more than 100 µM each time.

Take `CCOC(=O)c1csc(NC(=O)COc2cccc(/C=C3\CSc4ccccc4C3=O)c2)n1`: the GI50 in [9] is 2.64 µM; in [1] it was 0.448 µM; in experiment [2], 5.72 µM; in experiment [3], 0.608 µM; in [4] it was 5.04 µM; in experiment [6], 1.86 µM. Moreover, the figures for the GI50 in [10], in [7] and in experiment [8] were 0.275 µM, 2.06 µM and 0.204 µM, respectively. For the same molecule, the TGI is 8.99 µM in [9]; 0.989 µM in [1]; 16.7 µM in experiment [2]; 2.18 µM in experiment [3]; 17.3 µM in experiment [4]; 4.18 µM in [6]. Moreover, the TGI in experiment [10] was determined as 4.45 µM; in [7], 4.62 µM; in experiment [8] it was 0.502 µM.

For the molecule `COc1ccc2c(c1)N(CCO)C1=C(C(=O)OC1)C2c1ccccc1` (stereo not given), the GI50 in experiment [9] was 3.78 µM; in [1], 1.61 µM; in experiment [2] it was 1.87 µM; in [3], 1.77 µM; in experiment [4], 1.58 µM; in [6], 1.4 µM. In addition, the figures for the GI50 in experiment [10], in [7] and in [8] were 1.01 µM, 1.94 µM and 2.64 µM, respectively. The TGI is more than 50 µM in experiment [9]; 4.74 µM in [1]; more than 50 µM in experiment [2]; 5.73 µM in experiment [3]; 8.83 µM in experiment [4]; 4.65 µM in experiment [6]. The TGI in experiment [10], in experiment [7] and in [8] was more than 50 µM each time.

With `O=c1c(-c2ccc(O)cc2)coc2cc(OC3OC(CO)C(O)C(O)C3O)cc(O)c12` (stereo not given), the GI50 in experiment [9] was more than 10 µM; in experiment [1], more than 100 µM; in experiment [4], more than 100 µM; in experiment [6] it was more than 100 µM; in experiment [10] it was more than 10 µM; in experiment [8] it was more than 10 µM. The concentration for total growth inhibition (TGI) in experiment [9], in experiment [1], in experiment [2], in experiment [3], in experiment [4] and in [6] was more than 100 µM throughout. Further, the TGI in experiment [10], in experiment [7] and in experiment [8] was more than 100 µM each time.

Regarding `O=C(O)CC1CC=C[C@H]2c3cc4c(cc3C(=O)NC12)OCO4` (stereo not given in full), the TGI in [9], in experiment [2], in experiment [6], in [10], in experiment [7] and in experiment [8] was more than 75 µM throughout.

For `Cc1c(C2Cc3ccccc3N2)c2ccccc2n1C` (stereo not given), the total growth inhibition concentration (TGI) in experiment [9], in [1], in experiment [2], in experiment [3], in [4] and in experiment [6] was more than 100 µM each time. In addition, the TGI in experiment [10], in [7] and in experiment [8] was more than 100 µM in each case.

With `Cn1nc(-c2ccccc2)c(C(=O)/C=C/c2ccc(F)cc2)c(N2CCOCC2)c1=O`, the TGI in experiment [9] is 42.1 µM; in experiment [3] it was 30.2 µM; in experiment [4], 29.3 µM; in [5] it was 36.4 µM; in experiment [6], 48.8 µM; in experiment [7], more than 100 µM. Moreover, the TGI in experiment [8] came to 38.2 µM.

Turning to `C[C@@H]1CC[C@@H]2[C@@H](C)C[C@H]3[C@@H]4C(C)(C)OC(=O)[C@]4(C)C(=O)[C@@]23C1=O`, the TGI in experiment [9], in [1], in experiment [2], in [3], in [4] and in experiment [6] was more than 100 µM each time. The TGI in experiment [10], in [7] and in experiment [8] was more than 100 µM in each case. For the same molecule, the GI50 in [1] was more than 100 µM; in experiment [7] it was 16.4 µM.
